Experimental data reported in ChEMBL document CHEMBL1154943, “Exploration of SAR features by modifications of thiazoleacetic acids as CRTH2 antagonists” (Bioorg Med Chem Lett, 2010).

Assays:
[1] = molecular target: T1, Prostaglandin D2 receptor 2 (Homo sapiens) (UniProt Q9Y5Y4); experiment: Antagonist activity at human CRTH2 receptor expressed in HEK385-7 cells assessed as inhibition of PGD2-mediated beta-arrestin translocation preincubated 5 mins prior to PGD2 challenge measured after 5 mins by BRET assay relative to control; assay type: functional, cell-based
T1 sequence (whole entry): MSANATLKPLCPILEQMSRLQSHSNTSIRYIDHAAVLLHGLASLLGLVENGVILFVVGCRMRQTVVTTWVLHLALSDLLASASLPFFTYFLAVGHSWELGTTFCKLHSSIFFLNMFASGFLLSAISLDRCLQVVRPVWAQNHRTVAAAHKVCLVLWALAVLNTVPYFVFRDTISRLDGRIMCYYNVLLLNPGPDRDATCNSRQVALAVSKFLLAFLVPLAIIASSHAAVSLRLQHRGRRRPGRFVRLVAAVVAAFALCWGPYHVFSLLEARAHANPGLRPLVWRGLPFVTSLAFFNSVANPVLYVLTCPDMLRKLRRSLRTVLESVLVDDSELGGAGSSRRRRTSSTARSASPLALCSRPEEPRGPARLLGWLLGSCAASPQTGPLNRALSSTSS

[2] = molecular target: T2, Prostaglandin D2 receptor 2 (Homo sapiens, UniProt Q9Y5Y4); experiment: Displacement of [3H]PGD2 from human CRTH2 receptor expressed in HEK385-7 cells; assay type: cell-based
T2 sequence (Q9Y5Y4 whole entry): T1 sequence (whole entry)

[3] = molecular target: T2, Prostaglandin D2 receptor 2; experiment: Antagonist activity at human CRTH2 receptor expressed in HEK385-7 cells assessed as inhibition of PGD2-mediated beta-arrestin translocation preincubated 5 mins prior to PGD2 challenge measured after 5 mins by BRET assay; assay type: functional, cell-based
Thromboxane A2 receptor = molecular target: T3, Thromboxane A2 receptor (Homo sapiens, UniProt P21731); experiment: Inhibition of thromboxane A2 receptor
T3 sequence (P21731 whole entry): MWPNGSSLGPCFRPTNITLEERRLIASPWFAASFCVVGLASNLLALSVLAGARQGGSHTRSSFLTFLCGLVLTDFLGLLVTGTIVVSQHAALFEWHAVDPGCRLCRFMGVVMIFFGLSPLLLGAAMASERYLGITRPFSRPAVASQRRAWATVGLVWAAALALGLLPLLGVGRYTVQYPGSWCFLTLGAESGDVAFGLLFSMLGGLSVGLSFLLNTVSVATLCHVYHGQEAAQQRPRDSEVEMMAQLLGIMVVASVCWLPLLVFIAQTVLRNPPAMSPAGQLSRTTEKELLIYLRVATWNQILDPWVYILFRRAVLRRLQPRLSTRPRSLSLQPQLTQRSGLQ

[4] = Inhibition of guinea pig DP receptor; set-up: species or system Cavia porcellus
[5] = molecular target: T4, Prostaglandin D2 receptor (Homo sapiens, UniProt Q13258); experiment: Inhibition of human DP receptor
T4 sequence (Q13258 whole entry): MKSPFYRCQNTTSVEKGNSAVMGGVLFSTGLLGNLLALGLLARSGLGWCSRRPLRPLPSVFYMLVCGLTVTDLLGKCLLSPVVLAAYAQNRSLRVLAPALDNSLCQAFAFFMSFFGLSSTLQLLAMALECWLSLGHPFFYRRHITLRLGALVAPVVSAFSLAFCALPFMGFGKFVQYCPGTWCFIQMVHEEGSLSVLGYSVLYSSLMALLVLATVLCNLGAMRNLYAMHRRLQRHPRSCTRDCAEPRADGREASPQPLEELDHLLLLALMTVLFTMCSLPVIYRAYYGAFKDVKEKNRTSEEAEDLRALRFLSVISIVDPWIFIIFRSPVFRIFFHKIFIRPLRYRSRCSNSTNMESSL

[6] = molecular target: T5, Chemoattractant receptor-homologous molecule expressed on Th2 cells (Cavia porcellus, UniProt Q56D28); experiment: Inhibition of guinea pig CRTH2 receptor
T5 sequence (Q56D28 whole entry): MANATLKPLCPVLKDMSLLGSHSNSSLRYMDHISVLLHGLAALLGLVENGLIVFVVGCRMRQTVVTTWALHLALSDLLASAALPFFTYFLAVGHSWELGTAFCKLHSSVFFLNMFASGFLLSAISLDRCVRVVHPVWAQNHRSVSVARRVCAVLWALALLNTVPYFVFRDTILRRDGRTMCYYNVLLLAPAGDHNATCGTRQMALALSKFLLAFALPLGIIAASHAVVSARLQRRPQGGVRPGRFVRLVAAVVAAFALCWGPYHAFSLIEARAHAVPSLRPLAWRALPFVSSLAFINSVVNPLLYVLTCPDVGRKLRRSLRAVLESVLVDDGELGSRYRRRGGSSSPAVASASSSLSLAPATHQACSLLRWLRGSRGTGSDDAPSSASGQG

[7] = molecular target: T6, Prostaglandin D2 receptor 2 (Rattus norvegicus, UniProt Q6XKD3); experiment: Inhibition of rat CRTH2 receptor
T6 sequence (Q6XKD3 whole entry): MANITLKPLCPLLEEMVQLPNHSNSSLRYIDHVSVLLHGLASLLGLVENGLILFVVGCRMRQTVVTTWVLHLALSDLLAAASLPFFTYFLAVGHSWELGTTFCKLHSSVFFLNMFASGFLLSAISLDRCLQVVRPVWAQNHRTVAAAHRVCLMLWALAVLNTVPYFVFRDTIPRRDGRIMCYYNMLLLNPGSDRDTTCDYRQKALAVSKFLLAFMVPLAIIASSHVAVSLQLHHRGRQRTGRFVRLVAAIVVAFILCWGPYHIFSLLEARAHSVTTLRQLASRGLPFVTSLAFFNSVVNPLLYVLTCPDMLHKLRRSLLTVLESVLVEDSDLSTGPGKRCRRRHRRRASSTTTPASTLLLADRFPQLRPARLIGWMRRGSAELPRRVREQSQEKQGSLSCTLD

[8] = molecular target: T7, Prostaglandin D2 receptor (Mus musculus, UniProt P70263); experiment: Inhibition of mouse DP receptor
T7 sequence (P70263 whole entry): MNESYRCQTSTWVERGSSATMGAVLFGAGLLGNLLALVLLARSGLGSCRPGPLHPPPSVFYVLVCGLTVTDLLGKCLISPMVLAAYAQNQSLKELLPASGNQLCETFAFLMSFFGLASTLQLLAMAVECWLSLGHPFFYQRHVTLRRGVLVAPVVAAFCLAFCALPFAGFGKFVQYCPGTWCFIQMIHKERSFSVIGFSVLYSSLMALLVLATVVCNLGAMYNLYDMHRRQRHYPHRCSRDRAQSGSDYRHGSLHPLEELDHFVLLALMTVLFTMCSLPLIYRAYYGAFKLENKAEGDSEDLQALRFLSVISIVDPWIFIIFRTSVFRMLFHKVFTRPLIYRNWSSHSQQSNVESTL

[9] = molecular target: T8, Prostaglandin D2 receptor 2 (Mus musculus, UniProt Q9Z2J6); experiment: Inhibition of mouse CRTH2 receptor
T8 sequence (Q9Z2J6 whole entry): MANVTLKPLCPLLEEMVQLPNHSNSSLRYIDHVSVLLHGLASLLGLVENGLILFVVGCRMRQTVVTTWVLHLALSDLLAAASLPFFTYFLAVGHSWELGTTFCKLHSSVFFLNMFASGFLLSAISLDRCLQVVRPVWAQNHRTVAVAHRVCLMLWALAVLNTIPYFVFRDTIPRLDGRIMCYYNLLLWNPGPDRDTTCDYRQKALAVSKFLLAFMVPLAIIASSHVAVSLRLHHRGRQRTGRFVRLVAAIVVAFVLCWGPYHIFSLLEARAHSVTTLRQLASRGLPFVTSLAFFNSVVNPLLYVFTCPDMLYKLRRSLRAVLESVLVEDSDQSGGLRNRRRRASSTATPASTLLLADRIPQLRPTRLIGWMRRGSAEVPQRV

SMILES	Efficacy [1] [%]	IC50 [2] [nM]	IC50 [3] [nM]	also measured
COc1ccc(N(c2ccc(OC)cc2)c2ncc(CC(=O)O)c(-c3cccc(F)c3)n2)cc1	> 80	2790	> 100000	
O=C(O)Cc1[nH]c(C(c2ccc(F)cc2)c2ccc(F)cc2)nc1-c1ccc(F)cc1	> 80	9140	> 100000	
O=C(O)CCc1sc(C(c2ccc(F)cc2)c2ccc(F)cc2)nc1-c1cccc(F)c1	> 80	75	1000	
O=C(O)Cc1sc(N(c2ccccc2)c2cccnc2)nc1-c1ccc(F)cc1	> 30	43	1500	
CS(=O)(=O)c1ccc(N(c2ccccc2)c2nc(-c3ccc(F)cc3)c(CC(=O)O)s2)cc1	> 30	190	2000	
N#Cc1ccc(N(c2ccccc2)c2nc(-c3ccc(F)cc3)c(CC(=O)O)s2)cc1	> 55	84	460	
O=C(O)CCc1cnc(C(c2ccc(F)cc2)c2ccc(F)cc2)nc1-c1cccc(F)c1	> 80	2070	> 100000	
O=C(O)Cc1cnc(N(c2ccc(F)cc2)c2ccc(F)cc2)nc1-c1cccc(F)c1	> 80	1260	> 100000	
O=C(O)COc1sc(C(c2ccc(F)cc2)c2ccc(F)cc2)nc1-c1cccc(F)c1	> 80	83	200	

Stronger by IC50 [2], values ahead:

Efficacy [1] [%]	IC50 [2] [nM]	IC50 [3] [nM]	SMILES	also measured
> 80	23	240	O=C(O)Cc1sc(N(c2ccc(F)cc2)c2ccc(F)cc2)nc1-c1ccc(F)cc1	
> 80	18	72	O=C(O)Cc1sc(N(c2ccccc2)c2ccccc2)nc1-c1ccc(Cl)cc1	
> 80	15	260	COc1ccc(N(c2ccc(OC)cc2)c2nc(-c3cccc(F)c3)c(CC(=O)O)s2)cc1	
> 80	15	98	O=C(O)Cc1sc(N(c2ccccc2)c2ccccc2)nc1-c1ccc(F)cc1	
> 80	7.9	85	CC(c1ccccc1)(c1ccccc1)c1nc(-c2ccc(F)cc2)c(CC(=O)O)s1	
> 80	4.4	79	O=C(O)Cc1sc(N(c2ccccc2)c2ccccc2)nc1-c1cccc(F)c1	
> 80	1.9	12	O=C(O)Cc1cnc(C(c2ccc(F)cc2)c2ccc(F)cc2)nc1-c1cccc(F)c1	IC50 (Thromboxane A2 receptor): 31000 nM; IC50 [4]: > 100000 nM; IC50 [5]: 8500 nM; IC50 [6]: 29 nM; IC50 [7]: 7.5 nM; IC50 [8]: 5900 nM; IC50 [9]: 3.4 nM
